Experiments:
Experiment in all cases: NCI SRB growth inhibition (single dose 10 µM / five-dose)
Format in all cases: cell-based, human
[1] = system: BT-549; details: Homo sapiens; for inhibition at 10 µM: BT-549 (Breast cancer), read-out: GI%; for GI50: BT-549, Breast cancer, five-dose
Method in brief: (§1)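 Two-stage NCI-60 screen: single-dose test first, then five-dose testing. Growth is scored by sulforhodamine B staining of TCA-fixed cells relative to a time-zero plate, and TGI is taken where Ti = Tz.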

[2] = system: CCRF-CEM; details: Homo sapiens; for inhibition at 10 µM: CCRF-CEM (Leukemia), read-out: GI%; for GI50: CCRF-CEM, Leukemia, five-dose
Method in brief: as §1

[3] = system: DU-145; details: Homo sapiens; for inhibition at 10 µM: DU-145 (Prostate cancer), read-out: GI%; for GI50: DU-145, Prostate cancer, five-dose
Method in brief: as §1

[4] = system: HT29; details: Homo sapiens, HT-29; for inhibition at 10 µM: HT29 (Colon cancer), read-out: GI%; for GI50: HT29, Colon cancer, five-dose
Method in brief: as §1

[5] = system: IGROV1; details: Homo sapiens, IGROV-1; for inhibition at 10 µM: IGROV1 (Ovarian cancer), read-out: GI%; for GI50: IGROV1, Ovarian cancer, five-dose
Method in brief: as §1

[6] = system: K-562; details: Homo sapiens, K562; for inhibition at 10 µM: K-562 (Leukemia), read-out: GI%; for GI50: K-562, Leukemia, five-dose
Method in brief: as §1

[7] = system: KM12; details: Homo sapiens; for inhibition at 10 µM: KM12 (Colon cancer), read-out: GI%; for GI50: KM12, Colon cancer, five-dose
Method in brief: as §1

[8] = system: M14; details: Homo sapiens; for inhibition at 10 µM: M14 (Melanoma), read-out: GI%; for GI50: M14, Melanoma, five-dose
Method in brief: as §1

[9] = system: MDA-MB-231/ATCC; details: Homo sapiens; for inhibition at 10 µM: MDA-MB-231/ATCC (Breast cancer), read-out: GI%; for GI50: MDA-MB-231/ATCC, Breast cancer, five-dose
Method in brief: as §1

[10] = system: NCI-H226; details: Homo sapiens; for inhibition at 10 µM: NCI-H226 (Non-small cell lung cancer), read-out: GI%; for GI50: NCI-H226, Non-small cell lung cancer, five-dose
Method in brief: as §1

[11] = system: NCI-H522; details: Homo sapiens; for inhibition at 10 µM: NCI-H522 (Non-small cell lung cancer), read-out: GI%; for GI50: NCI-H522, Non-small cell lung cancer, five-dose
Method in brief: as §1

[12] = system: OVCAR-3; details: Homo sapiens; for inhibition at 10 µM: OVCAR-3 (Ovarian cancer), read-out: GI%; for GI50: OVCAR-3, Ovarian cancer, five-dose
Method in brief: as §1

[13] = system: OVCAR-4; details: Homo sapiens; for inhibition at 10 µM: OVCAR-4 (Ovarian cancer), read-out: GI%; for GI50: OVCAR-4, Ovarian cancer, five-dose
Method in brief: as §1

[14] = system: PC-3; details: Homo sapiens; for inhibition at 10 µM: PC-3 (Prostate cancer), read-out: GI%; for GI50: PC-3, Prostate cancer, five-dose
Method in brief: as §1

[15] = system: RPMI-8226; details: Homo sapiens; for inhibition at 10 µM: RPMI-8226 (Leukemia), read-out: GI%; for GI50: RPMI-8226, Leukemia, five-dose
Method in brief: as §1

[16] = system: RXF 393; details: Homo sapiens; for inhibition at 10 µM: RXF 393 (Renal cancer), read-out: GI%; for GI50: RXF 393, Renal cancer, five-dose
Method in brief: as §1

[17] = system: SF-268; details: Homo sapiens; for inhibition at 10 µM: SF-268 (CNS cancer), read-out: GI%; for GI50: SF-268, CNS cancer, five-dose
Method in brief: as §1

[18] = system: SF-295; details: Homo sapiens; for inhibition at 10 µM: SF-295 (CNS cancer), read-out: GI%; for GI50: SF-295, CNS cancer, five-dose
Method in brief: as §1

[19] = system: SK-MEL-28; details: Homo sapiens; for inhibition at 10 µM: SK-MEL-28 (Melanoma), read-out: GI%; for GI50: SK-MEL-28, Melanoma, five-dose
Method in brief: as §1

[20] = system: SK-MEL-2; details: Homo sapiens; for inhibition at 10 µM: SK-MEL-2 (Melanoma), read-out: GI%; for GI50: SK-MEL-2, Melanoma, five-dose
Method in brief: as §1

[21] = system: SK-MEL-5; details: Homo sapiens; for inhibition at 10 µM: SK-MEL-5 (Melanoma), read-out: GI%; for GI50: SK-MEL-5, Melanoma, five-dose
Method in brief: as §1

[22] = system: SK-OV-3; details: Homo sapiens; for GI50: SK-OV-3, Ovarian cancer, five-dose; for inhibition at 10 µM: SK-OV-3 (Ovarian cancer), read-out: GI%
Method in brief: as §1

[23] = system: SN12C; details: Homo sapiens; for GI50: SN12C, Renal cancer, five-dose
Method in brief: as §1

[24] = system: SNB-75; details: Homo sapiens; for inhibition at 10 µM: SNB-75 (CNS cancer), read-out: GI%; for GI50: SNB-75, CNS cancer, five-dose
Method in brief: as §1

[25] = system: U251; details: Homo sapiens, U-251; for inhibition at 10 µM: U251 (CNS cancer), read-out: GI%; for GI50: U251, CNS cancer, five-dose
Method in brief: as §1

[26] = system: UO-31; details: Homo sapiens; for inhibition at 10 µM: UO-31 (Renal cancer), read-out: GI%; for GI50: UO-31, Renal cancer, five-dose
Method in brief: as §1

## O=C(NN=Cc1ccccc1O)c1ccc2[nH]c(-c3ccc(Cl)cc3)nc2c1 [8o, 2-(4-Chlorophenyl)-N'-(2-hydroxybenzylidene)-1H-benzo[d]imidazole-5-carbohydrazide]
[1]
  inhibition at 10 µM: 60.6%
  GI50: 3570 nM
[2]
  inhibition at 10 µM: > 100%
  GI50: > 38800 nM
[3]
  inhibition at 10 µM: > 100%
  GI50: 1360 nM
[4]
  inhibition at 10 µM: > 100%
  GI50: 1080 nM
[5]
  inhibition at 10 µM: 84.3%
  GI50: 950 nM
[6]
  inhibition at 10 µM: 85.5%
  GI50: 150 nM
[7]
  inhibition at 10 µM: 85.4%
  GI50: 1240 nM
[8]
  inhibition at 10 µM: 90.9%
  GI50: 1810 nM
[9]
  inhibition at 10 µM: > 100%
  GI50: 1410 nM
[10]
  inhibition at 10 µM: 88.6%
  GI50: 4330 nM
[11]
  inhibition at 10 µM: > 100%
  GI50: 260 nM
[12]
  inhibition at 10 µM: > 100%
  GI50: 190 nM
[13]
  inhibition at 10 µM: > 100%
  GI50: 1250 nM
[14]
  inhibition at 10 µM: 78.5%
  GI50: > 38800 nM
[15]
  inhibition at 10 µM: 88.2%
  GI50: > 38800 nM
[16]
  inhibition at 10 µM: > 100%
  GI50: 790 nM
[17]
  inhibition at 10 µM: > 100%
  GI50: 840 nM
[18]
  inhibition at 10 µM: > 100%
  GI50: 1600 nM
[19]
  inhibition at 10 µM: 78.2%
  GI50: 1850 nM
[20]
  inhibition at 10 µM: > 100%
  GI50: 4600 nM
[21]
  inhibition at 10 µM: > 100%
  GI50: 510 nM
[22]
  GI50: 4530 nM
[23]; SN12C (Renal cancer), 10 µM, read-out: GI%
  inhibition at 10 µM: 59.4%
[23]
  GI50: 3410 nM
[24]
  inhibition at 10 µM: > 100%
  GI50: 740 nM
[25]
  inhibition at 10 µM: > 100%
  GI50: 830 nM
[26]
  inhibition at 10 µM: > 100%
  GI50: 310 nM

## COc1cccc(C=NNC(=O)c2ccc3[nH]c(-c4ccc(Cl)cc4)nc3c2)c1 [8q, 2-(4-Chlorophenyl)-N'-(3-methoxybenzylidene)-1H-benzo[d]imidazole-5-carbohydrazide]
[1]
  inhibition at 10 µM: 6.97%
  GI50: 10100 nM
[2]
  inhibition at 10 µM: 47%
  GI50: 1950 nM
[3]
  inhibition at 10 µM: > 100%
  GI50: 2040 nM
[4]
  inhibition at 10 µM: > 100%
  GI50: 2380 nM
[5]
  inhibition at 10 µM: > 100%
  GI50: 3010 nM
[6]
  inhibition at 10 µM: 98.1%
  GI50: 3140 nM
[7]
  inhibition at 10 µM: > 100%
  GI50: 4420 nM
[8]
  inhibition at 10 µM: > 100%
  GI50: 2150 nM
[9]
  inhibition at 10 µM: > 100%
  GI50: 1890 nM
[10]
  inhibition at 10 µM: > 100%
  GI50: 2570 nM
[11]
  inhibition at 10 µM: > 100%
  GI50: 2260 nM
[12]
  inhibition at 10 µM: > 100%
  GI50: 3240 nM
[13]
  inhibition at 10 µM: > 100%
  GI50: 3070 nM
[14]
  inhibition at 10 µM: > 100%
[15]
  inhibition at 10 µM: > 100%
  GI50: 1470 nM
[16]
  inhibition at 10 µM: > 100%
  GI50: 2060 nM
[17]
  inhibition at 10 µM: > 100%
  GI50: 2180 nM
[18]
  inhibition at 10 µM: > 100%
  GI50: 2170 nM
[19]
  inhibition at 10 µM: > 100%
  GI50: 2150 nM
[20]
  inhibition at 10 µM: > 100%
  GI50: 3070 nM
[21]
  inhibition at 10 µM: > 100%
  GI50: 4900 nM
[22]
  inhibition at 10 µM: > 100%
  GI50: 2020 nM
[23]
  GI50: 2220 nM
[24]
  inhibition at 10 µM: > 100%
  GI50: 5690 nM
[25]
  inhibition at 10 µM: > 100%
  GI50: 2030 nM
[26]
  inhibition at 10 µM: 81.7%
  GI50: 3460 nM

## COc1cccc(C=NNC(=O)c2ccc3[nH]c(-c4ccc(Cl)cc4)nc3c2)c1O [8r, 2-(4-Chlorophenyl)-N'-(2-hydroxy-3-methoxybenzylidene)-1H-benzo[d]imidazole-5-carbohydrazide]
[1]
  inhibition at 10 µM: > 100%
  GI50: 1360 nM
[2]
  inhibition at 10 µM: > 100%
  GI50: 430 nM
[3]
  inhibition at 10 µM: > 100%
  GI50: 1990 nM
[4]
  inhibition at 10 µM: > 100%
  GI50: 4170 nM
[5]
  inhibition at 10 µM: > 100%
  GI50: 1250 nM
[6]
  inhibition at 10 µM: > 100%
  GI50: 490 nM
[7]
  inhibition at 10 µM: > 100%
  GI50: 1660 nM
[8]
  inhibition at 10 µM: > 100%
  GI50: 2070 nM
[9]
  inhibition at 10 µM: > 100%
  GI50: 1820 nM
[10]
  inhibition at 10 µM: > 100%
  GI50: 1650 nM
[11]
  inhibition at 10 µM: > 100%
  GI50: 1170 nM
[12]
  inhibition at 10 µM: > 100%
  GI50: 560 nM
[13]
  inhibition at 10 µM: > 100%
  GI50: 1410 nM
[14]
  inhibition at 10 µM: > 100%
  GI50: 1620 nM
[15]
  inhibition at 10 µM: > 100%
  GI50: 2220 nM
[16]
  inhibition at 10 µM: > 100%
  GI50: 1410 nM
[17]
  inhibition at 10 µM: > 100%
  GI50: 1210 nM
[18]
  inhibition at 10 µM: > 100%
  GI50: 2200 nM
[19]
  inhibition at 10 µM: > 100%
  GI50: 1620 nM
[20]
  inhibition at 10 µM: > 100%
[21]
  inhibition at 10 µM: > 100%
  GI50: 1340 nM
[22]
  inhibition at 10 µM: > 100%
  GI50: 2080 nM
[23]
  GI50: 1720 nM
[24]
  inhibition at 10 µM: > 100%
[25]
  inhibition at 10 µM: > 100%
  GI50: 1500 nM
[26]
  inhibition at 10 µM: > 100%
  GI50: 2070 nM

Source: publication PMC10893631, “Receptor-based pharmacophore modeling, molecular docking, synthesis and biological evaluation of novel VEGFR-2, FGFR-1, and BRAF multi-kinase inhibitors” (BMC Chemistry, 2024)
